Tests used:
[1] = tested on: U-87 MG human glioblastoma; assay: U87 MG CCK-8 proliferation assay; type: cell-based; settings: Homo sapiens, U-87 MG, 72 h, U-87 MG cells, read-out: U87MG CCK-8
How it was run: (§1)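 Cells grown per ATCC recommendations were treated with 3-fold serial compound dilutions from 20 μM to 1.02 nM. CCK-8 absorbance was converted to % inhibition against DMSO-treated cells, with cell-free medium containing DMSO as the blank.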

[2] = tested on: MV-4-11 human acute myeloid leukemia; assay: MV-4-11 CCK-8 proliferation assay; type: cell-based; settings: Homo sapiens, MV4-11; MV-4-11 cells, 72 hr
How it was run: as §1

HSP90α protein = molecular target: T1, HSP90α protein (Homo sapiens, UniProt P07900); assay: HSP90α-binding FP (BODIPY) assay; settings: FP competition with BODIPY-labeled RNK04010
T1 construct: purchased BPS Bioscience #50298
Experimental: Binding of test compounds to HSP90α protein was measured by fluorescent polarization (FP) using the HSP90α (N-terminal) Assay Kit (BPS Bioscience, #50298), following the manufacturer's instructions, except as noted. Fluorescently labeled HSP90-binding compounds, either the provided FITC-geldanamycin (5 nM final concentration) or RNK04010, a triazolone-based HSP90 binding small molecule labeled with BODIPY through a piperazine-phenyl linker (5 nM final concentration) were employed. A 2.5-fold serial dilution of each test compound ranging from 20 μM to 5.2 nM was assayed for binding to HSP90α. After the final step of adding HSP90α protein to each assay well, plates were mixed by brief shaking, incubated at 25° C. for 120 min for FITC-geldanamycin or 300 min for RNK04010, and fluorescence was measured using a PerkinElmer EnVision Plate Reader.

| Compound | EC50 [1] | EC50 [2] | IC50 (HSP90α protein) |
| --- | --- | --- | --- |
| CCOc1cc(N2CCC(C(=O)N3CCN(Cc4ccc(-n5c(O)nnc5-c5cc(C)c(O)cc5O)cc4)CC3)CC2)ccc1Nc1ncc2c(n1)N(C)c1ccccc1C(=O)N2C [Compound 048, 2-((4-(4-(4-(4-(3-(2,4-dihydroxy-5-methylphenyl)-5-hydroxy-4H-1,2,4-triazol-4-yl)benzyl)piperazine-1-carbonyl)piperidin-1-yl)-2-ethoxyphenyl)amino)-5,11-dimethyl-5,11-dihydro-6H-benzo[e]pyrimido[5,4-b][1,4]diazepin-6-one] | 0.1 to 1 µM | < 0.1 µM | 0.1 to 1 µM |
| CCOc1cc(N2CCC(C(=O)N3CCN(Cc4ccc(-n5c(O)nnc5-c5cc(C(C)C)c(O)cc5O)cc4)[C@@H](C)C3)CC2)ccc1Nc1ncc2c(n1)N(C)c1ccccc1C(=O)N2C [Compound 055, (S)-2-((4-(4-(4-(4-(3-(2,4-dihydroxy-5-isopropylphenyl)-5-hydroxy-4H-1,2,4-triazol-4-yl)benzyl)-3-methylpiperazine-1-carbonyl)piperidin-1-yl)-2-ethoxyphenyl)amino)-5,11-dimethyl-5,11-dihydro-6H-benzo[e]pyrimido[5,4-b][1,4]diazepin-6-one] | 0.1 to 1 µM | < 0.1 µM | 0.1 to 1 µM |
| CCOc1cc(N2CCC(C(=O)N3CCC(N4CCN(Cc5ccc(-n6c(O)nnc6-c6cc(C(C)C)c(O)cc6O)cc5)CC4)CC3)CC2)ccc1Nc1ncc2c(n1)N(S(C)(=O)=O)c1ccccc1C(=O)N2C [Compound 064, 2-((4-(4-(4-(4-(4-(3-(2,4-dihydroxy-5-isopropylphenyl)-5-hydroxy-4H-1,2,4-triazol-4-yl)benzyl)piperazin-1-yl)piperidine-1-carbonyl)piperidin-1-yl)-2-ethoxyphenyl)amino)-5-methyl-11-(methylsulfonyl)-5,11-dihydro-6H-benzo[e]pyrimido[5,4-b][1,4]diazepin-6-one] | < 0.1 µM | < 0.1 µM | < 0.1 µM |

Continued, values first:

| EC50 [1] | EC50 [2] | IC50 (HSP90α protein) | Compound |
| --- | --- | --- | --- |
| < 0.1 µM | < 0.1 µM | 0.1 to 1 µM | CCOc1cc(N2CCC(C(=O)N3CCN(Cc4ccc(-n5c(O)nnc5-c5cc(C(C)C)c(O)cc5O)cc4)[C@H](C)C3)CC2)ccc1Nc1ncc2c(n1)N(C)c1ccccc1C(=O)N2C [Compound 051, (R)-2-((4-(4-(4-(4-(3-(2,4-dihydroxy-5-isopropylphenyl)-5-hydroxy-4H-1,2,4-triazol-4-yl)benzyl)-3-methylpiperazine-1-carbonyl)piperidin-1-yl)-2-ethoxyphenyl)amino)-5,11-dimethyl-5,11-dihydro-6H-benzo[e]pyrimido[5,4-b][1,4]diazepin-6-one] |
| < 0.1 µM | < 0.1 µM | < 0.1 µM | CCOc1cc(N2CCC(C(=O)N3CCC(N4CCN(Cc5ccc(-n6c(O)nnc6-c6cc(C(C)C)c(O)cc6O)cc5F)CC4)CC3)CC2)ccc1Nc1ncc2c(n1)N(S(C)(=O)=O)c1ccccc1C(=O)N2C [Compound 059, 2-((4-(4-(4-(4-(4-(3-(2,4-dihydroxy-5-isopropylphenyl)-5-hydroxy-4H-1,2,4-triazol-4-yl)-2-fluorobenzyl)piperazin-1-yl)piperidine-1-carbonyl)piperidin-1-yl)-2-ethoxyphenyl)amino)-5-methyl-11-(methylsulfonyl)-5,11-dihydro-6H-benzo[e]pyrimido[5,4-b][1,4]diazepin-6-one] |
| < 0.1 µM | < 0.1 µM | < 0.1 µM | CCOc1cc(N2CCC(C(=O)N3CCC(CN4CCN(Cc5ccc(-n6c(C(N)=O)nnc6-c6cc(CC)c(O)cc6O)cc5)CC4)CC3)CC2)ccc1Nc1ncc2c(n1)N(S(C)(=O)=O)c1ccccc1C(=O)N2C [Compound 063, 4-(4-((4-((1-(1-(3-ethoxy-4-((5-methyl-11-(methylsulfonyl)-6-oxo-6,11-dihydro-5H-benzo[e]pyrimido[5,4-b][1,4]diazepin-2-yl)amino)phenyl)piperidine-4-carbonyl)piperidin-4-yl)methyl)piperazin-1-yl)methyl)phenyl)-5-(5-ethyl-2,4-dihydroxyphenyl)-4H-1,2,4-triazole-3-carboxamide] |

From patent publication US20240124460A1, “METHODS AND COMPOSITIONS FOR TARGETED PROTEIN DEGRADATION” (Ranok Therapeutics (Hangzhou) Co. Ltd., priority 2020, published 2024)
